Measurements published in patent US12274728B2, “Preparation comprising omega-3 fatty acid salts and extracts of gum resins from Boswellia species” (Evonik Operations GmbH, priority 2019, dated 2025).

Test system: human monocyte-derived M1 macrophages
Assay: Lipid mediator (LM) formation in human monocyte-derived M1 macrophages, UPLC-MS-MS
Type: cell-based
Settings: M1, single agents: extracts 50 μg/mL, AKBA 10 μM, AvailOm® 3 μg/mL, 180 min (FIG. 1)
Method: Leukocyte concentrates from freshly withdrawn peripheral blood of healthy adult human donors were provided by the Institute of Transfusion Medicine, University Hospital Jena, Germany. The experimental protocol was approved by the ethical committee of the University Hospital Jena. All methods were performed in accordance with the relevant guidelines and regulations. Peripheral blood mononuclear cells (PBMC) were isolated using dextran sedimentation and Ficoll-Histopaque 1077-1 (Sigma-Aldrich, Taufkirchen, Germany) centrifugation. For differentiation and polarization towards M1 and M2, published criteria were used. […]
Macrophages (2×10^6/ml) were incubated in PBS containing 1 mM CaCl2). […] Supernatants were transferred to 2 ml of ice-cold methanol containing 10 μl of deuterium-labeled internal standards (200 nM […], d4-LTB4, d5-LXA4, d5-RvD2, d4-PGE2 and 10 μM d8-AA) to facilitate quantification. […] LM profiling was analyzed with an Acquity™ UPLC system (Waters, Milford, MA) and a QTRAP 5500 Mass Spectrometer (ABSciex, Darmstadt, Germany) equipped with a Turbo VTM Source and electrospray ionization (ESI). […] Quantification was achieved by calibration curves for each LM. […]

## 3-O-acetyl-11-keto-beta-boswellic acid [AKBA]
  LM formation / LM biosynthesis: did not significantly elevate
